Legend:
barnyardgrass [1] = experiment: Test A pre-/postemergence herbicide test; format: in vivo, Echinochloa crus-galli
Procedure, shortened: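 Approximately 10 days after treatment in the greenhouse, plants were compared with untreated controls and given a 0–100 visual injury rating. Applications: preemergence directed soil spray; postemergence on 2–10 cm plants at the one- to two-leaf stage.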

blackgrass = experiment: Test C pre-/postemergence herbicide test; format: in vivo, Alopecurus myosuroides
Procedure, shortened: (§1)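 Plants grown and held in a greenhouse for 13 to 15 days post-spray, then rated 0–100 by visual comparison with controls. Pre treatments targeted seeds in loam and sand; post treatments targeted 1- to 4-leaf plants in peat-based potting medium.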

wheat (winter wheat) = experiment: Test C pre-/postemergence herbicide test; format: in vivo, Triticum aestivum; settings: for Plant response rating, Wheat: Postemergence
Procedure, shortened: as §1

galium = experiment: Test C pre-/postemergence herbicide test; format: in vivo, Galium aparine; settings: Preemergence
Procedure, shortened: as §1

crabgrass, large = experiment: Test C pre-/postemergence herbicide test; format: in vivo, Digitaria sanguinalis
Procedure, shortened: as §1

foxtail, giant = experiment: Test C pre-/postemergence herbicide test; format: in vivo, Setaria faberii
Procedure, shortened: as §1

pigweed = experiment: Test C pre-/postemergence herbicide test; format: in vivo, Amaranthus retroflexus
Procedure, shortened: as §1

soybean = experiment: Test C pre-/postemergence herbicide test; format: in vivo, Glycine max
Procedure, shortened: as §1

barnyardgrass [2] = experiment: Test C pre-/postemergence herbicide test; format: in vivo, Echinochloa crus-galli
Procedure, shortened: as §1

oilseed rape = experiment: Test C pre-/postemergence herbicide test; format: in vivo, Brassica napus
Procedure, shortened: as §1

oat, wild = experiment: Test C pre-/postemergence herbicide test; format: in vivo, Avena fatua; settings: Postemergence
Procedure, shortened: as §1

velvetleaf = experiment: Test C pre-/postemergence herbicide test; format: in vivo, Abutilon theophrasti
Procedure, shortened: as §1

[3] = Postemergence, 31 g ai/ha, scale 0 to 100 (0 no effect, 100 complete control)
[4] = Postemergence, 62 g ai/ha, scale 0 (no effect) to 100 (complete control)
[5] = Postemergence, 125 g ai/ha, scale 0 to 100 (0 no effect, 100 complete control)
[6] = Postemergence, 250 g ai/ha, scale 0 to 100 (0 no effect, 100 complete control)
[7] = Preemergence, 31 g ai/ha, scale 0 to 100, 0 is no effect and 100 is complete control
[8] = Preemergence, 62 g ai/ha, scale 0 to 100 (0 no effect, 100 complete control)
[9] = Preemergence, 125 g ai/ha, scale 0 to 100 (0 no effect, 100 complete control)
[10] = 31 g ai/ha, scale 0 to 100 (0 no effect, 100 complete control)
[11] = 62 g ai/ha, scale 0 (no effect) to 100 (complete control)
[12] = 125 g ai/ha, scale 0 to 100 (0 no effect, 100 complete control)
[13] = 250 g ai/ha, scale 0 to 100 (0 no effect, 100 complete control)

CN1CC(c2ccc(F)c(F)c2)C(C(=O)Nc2cccc(F)c2F)C1=O (stereo not shown) [Compound 303]
Plant response rating, Barnyardgrass (barnyardgrass [1]; Postemergence, 125 g ai/ha, visual rating on 0 to 100 scale (0 no effect, 100 complete control), approx. 10 days): 80 | Plant response rating, Barnyardgrass (barnyardgrass [1]; Postemergence, 500 g ai/ha, 0 to 100 scale (0 no effect, 100 complete control)): 90 | Plant response rating, Barnyardgrass (barnyardgrass [1]; Preemergence, 125 g ai/ha, 0 to 100 scale where 0 is no effect and 100 is complete control): 90 | Barnyardgrass plant response rating (barnyardgrass [1]; Preemergence, 500 g ai/ha, visual rating on 0 to 100 scale (0 no effect, 100 complete control)): 90 | Plant response rating, Blackgrass (blackgrass; [3]): 0 | Plant response rating, Blackgrass (blackgrass; [4]): 0 | Plant response rating, Blackgrass (blackgrass; [5]): 0 | Plant response rating, Blackgrass (blackgrass; [6]): 0 | Blackgrass plant response rating (blackgrass; [7]): 0 | Blackgrass plant response rating (blackgrass; [8]): 40 | Plant response rating, Blackgrass (blackgrass; [9]): 80 | Plant response rating (scale of 0 to 100), Blackgrass (blackgrass; Preemergence, 250 g ai/ha): 90 | Plant response rating, Wheat (wheat (winter wheat); [10]): 0 | Plant response rating, Wheat (wheat (winter wheat); [11]): 0 | Plant response rating, Wheat (wheat (winter wheat); [12]): 0 | Plant response rating, Wheat (wheat (winter wheat); [13]): 0 | Wheat plant response rating (wheat (winter wheat); [7]): 0 | Wheat plant response rating (wheat (winter wheat); [8]): 75 | Plant response rating (scale of 0 to 100), Wheat (wheat (winter wheat); Preemergence, 250 g ai/ha): 90 | Galium plant response rating (galium; 31 g ai/ha, scale 0 to 100, 0 is no effect and 100 is complete control): 90 | Galium plant response rating (galium; 62 g ai/ha, scale 0 to 100 (0 no effect, 100 complete control)): 0 | Plant response rating, Galium (galium; [12]): 85 | Plant response rating (scale of 0 to 100), Galium (galium; 250 g ai/ha): 85 | Plant response rating, Crabgrass, Large (crabgrass, large; [3]): 0 | Plant response rating, Crabgrass, Large (crabgrass, large; [4]): 40 | Plant response rating, Crabgrass, Large (crabgrass, large; [5]): 65 | Plant response rating, Crabgrass, Large (crabgrass, large; [6]): 90 | Crabgrass, Large plant response rating (crabgrass, large; [7]): 95 | Crabgrass, Large plant response rating (crabgrass, large; [8]): 98 | Plant response rating, Crabgrass, Large (crabgrass, large; [9]): 98 | Plant response rating (scale of 0 to 100), Crabgrass, Large (crabgrass, large; Preemergence, 250 g ai/ha): 100 | Plant response rating, Foxtail, Giant (foxtail, giant; [4]): 80 | Plant response rating, Foxtail, Giant (foxtail, giant; [5]): 85 | Plant response rating, Foxtail, Giant (foxtail, giant; [6]): 90 | Foxtail, Giant plant response rating (foxtail, giant; [7]): 90 | Foxtail, Giant plant response rating (foxtail, giant; [8]): 95 | Plant response rating, Foxtail, Giant (foxtail, giant; [9]): 98 | Plant response rating (scale of 0 to 100), Foxtail, Giant (foxtail, giant; Preemergence, 250 g ai/ha): 100 | Plant response rating, Pigweed (pigweed; [3]): 0 | Plant response rating, Pigweed (pigweed; [4]): 0 | Plant response rating, Pigweed (pigweed; [5]): 10 | Plant response rating, Pigweed (pigweed; [6]): 25 | Pigweed plant response rating (pigweed; [7]): 35 | Pigweed plant response rating (pigweed; [8]): 55 | Plant response rating, Pigweed (pigweed; [9]): 65 | Plant response rating (scale of 0 to 100), Pigweed (pigweed; Preemergence, 250 g ai/ha): 80 | Plant response rating, Soybean (soybean; [3]): 0 | Plant response rating, Soybean (soybean; [4]): 0 | Plant response rating, Soybean (soybean; [5]): 0 | Plant response rating, Soybean (soybean; [6]): 0 | Soybean plant response rating (soybean; [7]): 0 | Soybean plant response rating (soybean; [8]): 0 | Plant response rating, Soybean (soybean; [9]): 0 | Plant response rating (scale of 0 to 100), Soybean (soybean; Preemergence, 250 g ai/ha): 20 | Plant response rating, Barnyardgrass (barnyardgrass [2]; [3]): 10 | Plant response rating, Barnyardgrass (barnyardgrass [2]; [4]): 60 | Plant response rating, Barnyardgrass (barnyardgrass [2]; [5]): 70 | Plant response rating, Barnyardgrass (barnyardgrass [2]; [6]): 70 | Barnyardgrass plant response rating (barnyardgrass [2]; [7]): 90 | Barnyardgrass plant response rating (barnyardgrass [2]; [8]): 95 | Plant response rating, Barnyardgrass (barnyardgrass [2]; [9]): 95 | Plant response rating (scale of 0 to 100; 0 is no effect, 100 is complete control), Barnyardgrass (barnyardgrass [2]; Preemergence, 250 g ai/ha): 98 | Plant response rating, Oilseed Rape (oilseed rape; [3]): 0 | Plant response rating, Oilseed Rape (oilseed rape; [4]): 0 | Plant response rating, Oilseed Rape (oilseed rape; [5]): 0 | Plant response rating, Oilseed Rape (oilseed rape; [6]): 30 | Oilseed Rape plant response rating (oilseed rape; [7]): 0 | Oilseed Rape plant response rating (oilseed rape; [8]): 35 | Plant response rating, Oilseed Rape (oilseed rape; [9]): 80 | Plant response rating (scale of 0 to 100), Oilseed Rape (oilseed rape; Preemergence, 250 g ai/ha): 85 | Plant response rating, Oat, Wild (oat, wild; [10]): 0 | Plant response rating, Oat, Wild (oat, wild; [11]): 0 | Plant response rating, Oat, Wild (oat, wild; [12]): 0 | Plant response rating, Oat, Wild (oat, wild; [13]): 0 | Plant response rating, Velvetleaf (velvetleaf; [3]): 35 | Plant response rating, Velvetleaf (velvetleaf; [4]): 0 | Plant response rating, Velvetleaf (velvetleaf; [5]): 25 | Plant response rating, Velvetleaf (velvetleaf; [6]): 35 | Velvetleaf plant response rating (velvetleaf; [7]): 10 | Velvetleaf plant response rating (velvetleaf; [8]): 25 | Plant response rating, Velvetleaf (velvetleaf; [9]): 50 | Plant response rating (scale of 0 to 100), Velvetleaf (velvetleaf; Preemergence, 250 g ai/ha): 55

Reference: US10294202B2, “Pyrrolidinones as herbicides” (FMC Corporation, priority 2013, dated 2019)
